# In US11612586B2, “Indole regulation of antigen presenting cells” (THE TEXAS A&M UNIVERSITY SYSTEM, priority 2016, dated 2023):
# Assays:
# [1] = system: Stat3; assay: IL-6-induced phospho-Stat3 in BMDCs, flow cytometry; assay type: cell-based, mouse
# Method: Flow cytometric analysis was performed on BMDCs conditioned with indole from day 3 of culture and subsequently stimulated with IL-6 (10 ng/ml) for the given times. Cells were stained for phospho-Stat3 and analyzed by flow cytometry.
# Flow cytometric analysis of BMDCs from WT or AhrKO mice cultured in the presence of indole or DMF from day 3. DCs were stimulated with IL-6 (10 ng/ml) for the given times and stained for phospho-Stat3, which was detected by flow cytometry. Stat3 signaling is shown as percent of phosphorylated cells (FIG. 10A), and MFI of the Stat3 positive population (FIGS. 10B and 10C). The specific Stat3 inhibitor, cucurbitacin I, was included as a negative control. Representative data is shown from one of four independent experiments.
# BMDCs were conditioned with indole from day 3 and then induced Stat3 signaling by stimulation with IL-6 (FIGS. 6A and 6B). While Stat3 has both a tyrosine (Y705) and serine (S727) activation site, tyrosine phosphorylation is mediated by Janus kinases and required for Stat3 nuclear localization and subsequent DNA binding. Thus, the […] was queried for this study.
# [2] = system: Stat3; assay: IL-6 induced pSTAT3 signaling in splenic DCs; assay type: cell-based, mouse; settings: splenic DCs, 1 mM TDMM 24 hours, IL-6 (10 ng/ml) 30 minutes
# Method: Briefly, flow cytometric analysis was performed on splenic DCs conditioned with the indicated TDMMs for 24 hours and then subsequently stimulated with 10 ng/ml IL-6 for 30 minutes.
# [3] = system: Stat3; assay: IL-6-induced phospho-Stat3 in BMDMs; assay type: cell-based, mouse
# Method: BMDMs were treated with indole or DMF control for 18 hours, then stimulated with IL-6 (10 ng/ml) for the given times. Cells were stained for phospho-Stat3 and analyzed by flow cytometry.
# Similarly, the ex vivo indole conditioning of splenocytes was repeated with tissues from AhR-deficient and wild-type mice and analyzed TNF production. […] Importantly, in this set of experiments splenocytes were stimulated with LPS, heat-killed S. typhimurium, and CpG. […] Specifically, BMDMs were generated from WT or AhR-KO mice and treated with indole (1 mM) or DMF control for 18 hours. BMDMs were then stimulated with IL-6 (10 ng/ml) for the given times and stained for phospho-Stat3, which was detected by flow cytometry.
# [4] = system: Akt; assay: phospho-Akt signaling in BMDMs; assay type: cell-based, mouse
# Method: The PI3K/Akt and MAPK/Erk signaling pathways regulate many cellular processes including survival, apoptosis, growth, and cytokine production. […] Specifically, BMDMs were treated with indole (1 mM) or DMF control for 18 hours, then stimulated with LPS (10 ug/ml) or CpG (5 uM) for 30 minutes. Cells were stained for phospho-Akt or phospho-Erk and analyzed by flow cytometry.
# The inventors performed a series of assays where bone marrow derived macrophages (BMDMs), bone marrow derived dendritic cells (BMDCs), and splenic dendritic cells (splenic DCs), were exposed to a series of TDMMs, including indole, indole-3-acetate (I3AT), 5-hydroxyindole (5HI), and indole-3-pyruvate (I3P), as well as indole-3-carbinol (I3C; a plant derived compound) to be used for a positive control (1 mM for 24 hours). The BMDMs and BMDCs were stimulated with LPS for 4 hours and assayed at day 7 for expression of various pro-inflammatory cytokines. In a similar assay, the BMDMs and BMDCs were stimulated with LPS or CpG, respectively, for 15 minutes and assayed for pAKT and pERK signaling, which is a reflection of pro-inflammatory response.
# [5] = system: naïve CD4+CD25− T cells; assay: T cell activation in the presence of BMDC supernatant: Treg induction; assay type: cell-based, mouse; settings: T cells on α-CD3/α-CD28 plates, 72 hours
# [6] = system: Salmonella Typhimurium; assay: Salmonella invasion of HeLa epithelial cells (Salmonella exposed to indole); assay type: cell-based
smiles,measurement,setting,value
"c1ccc2[nH]ccc2c1 [Indole, indole]",peak phosphorylation of Stat3 (percentage of DCs),"[1]; BMDCs, 1 mM indole from day 3, IL-6 10 ng/ml, 15 minutes post-stimulation",8%
same,suppression of phospho-Stat3 MFI,"[1]; BMDCs, indole from day 3, IL-6 stimulation, throughout 60 minute timecourse",≥ 2 fold
same,"inhibition of Stat3 phospho-signaling, WT versus AhR−/−",[1]; indole-DCs generated from WT or AhR−/− bone marrow,nearly equivalent inhibition
same,"IL-6 induced pSTAT3 expression, CD4+ DCs",[2],↓↓
same,"IL-6 induced pSTAT3 expression, CD4− DCs",[2],↓↓
same,reduction of Stat3 signaling,"[3]; BMDMs from WT or AhR-KO mice, 1 mM indole 18 hours, IL-6 10 ng/ml",over 60%
same,reduction of number of macrophages undergoing Stat3 phosphorylation,"[3]; BMDMs, overnight indole, IL-6 stimulation",50%
same,pAKT,"[4]; 1 mM TDMM 24 hours, LPS 1 ug/ml 15 minutes",↓
same,dampening of pAkt signaling,"[4]; indole 1 mM 18 hours, LPS (10 ug/ml) or CpG (5 uM) 30 minutes",approximately 50%
same,Treg induction by supernatant of conditioned BMDCs relative to solvent control DCs,[5],No significant induction of Tregs
same,decrease of Salmonella invasion of HeLa epithelial cells,[6],160 fold
